Experimental findings from EP3064205A1, “Therapeutic use of isomeric forms of 2-(4-chlorophenyl)quinolin-4-yl)(piperidin-2-yl)methanol” (Glionova AB, priority 2015, dated 2016) are described below.

Entries after “also recorded” stand apart in the source; their conditions may differ. Like-named read-outs stand apart in the source and are kept apart here.

Data set [1] can be described thus: Pharmacokinetic evaluation in mice (plasma and brain). Type of data set: in vivo, male NMRI mice. The following applies: for Kp / Tmax / Cmax: male, NMRI, mouse; for Kp: brain/plasma, single oral administration of 20 mg/kg. Here is the method:
Compounds S1 and S2 were formulated at 0.4 mg/mL in 7.5% NMP, 10% Kolliphor in 0.9% NaCl (for i.v. administration) and at 2.0 mg/mL in 0.1% Tween 80, 0.5% Na-CMC in water (for p.o. administration).
The pharmacokinetic properties of S1 and S2 were determined in male NMRI mice (Charles River, Germany) following single intravenous (i.v., tail vein, 2 mg/kg) or per oral (p.o, gavage, 20 mg/kg). Light isoflurane anaesthesia was used at i.v. administration, no anaesthesia was used at p.o. administration. Blood samples were kept on ice after sampling and centrigued at +4 °C, 1800 x g for 5 minutes to prepare plasma. Blood and homogenized brain samples were taken from animals at the following nominal time points: 15, 30, and 60 minutes, and 2, 4, 6, 8, 24, 48, 72 and 144 hours after dosing (n=3 samples/time-point). Blood sampling (400-600 microliters) was performed by orbital plexus collection under isoflurane anaesthesia into EDTA plasma tubes (BD Microtainer K2EDTA). Bioanalytical quantification of S1 and S2 was analysed in plasma and brain samples by a UPLC-MS/MS. Pharmacokinetics were calculated by non-compartmental analysis (NCA) from composite (mean) profiles using Phoenix WinNonlin Professional (v 6.3). Nominal sampling times and dose levels have been used for the NCA calculations. All animals dosed with S1 and S2 were systemically exposed to the test compound. The plasma and brain concentrations were detectable and analysed until 144 h.
Brain sampling was performed after the end of blood sampling at the specified time points following euthanization and skull extraction. Brains were weighed and placed in test tubes and placed on wet ice. 4 mL PBS (pH 7.4) per 1 g of brain tissue was added to the test tube and brains were then homogenized using an Ultra-Turrax T25 homogenisator (Setting 2, 9500 rpm, 10s). The homogenates were frozen at -20° C immediately after homogenization.

Data set [2] has as its system glioblastoma cell line U3013. Nature of the data set: ATP viability assay (CellTiter-Glo). Type of data set: cell-based, human. The following applies: U3013, dose response, CellTiterGlo ATP quantification. The protocol: (§1) The human melanoma cell line SK-MEL-28 is a well established reference cell line in melanoma research (Goodfellow M, et al. J. Natl. Cancer Inst. 59: 221-226, 1977). Cells were cultured in MEM supplemented with 10% FCS. Glioblastoma cell line (U3013) was generated directly from patient-derived tumors (Kitambi et al. Cell. 2014: 157(2):313-28) and grown in serum-free media supplemented with N2, B27, EGF, and FGF-2 (20 ng/ml) using previously described methodology (Pollard et al., 2009).
Culture plates were pre-coated with laminin (Sigma) for 3 hr at 10 ug/ml prior to use and confluent cells were split 1:3 to 1:5 using TrypLE Express (Invitrogen).
(§2) Viability assay was conducted in 96 well microtiter plates seeded with 3000 cells. Cell viability was measured using CellTiter-Glo assay (Promega), according to the manufacturer's instructions. Luminescence was measured using Victor3 FA (Perkin Elmer) microtiter plate reader. Total luminescence was normalized relative to negative control and curve fitting performed using GraphPad Prism (v6.02) software. IC50 was determined using Cell Viability assay, and data was illustrated using GraphPad Prism (version 6.02)
For orientation: ATP-based viability assays read luminescence as a measure of living cells.

Another data set has as its system SK-Mel-28. The experiment in a line: ATP viability assay (CellTiter-Glo). Conditions: Homo sapiens. Type of data set: cell-based. The protocol: as §1, §2
Data set [3] has as its system SK-Mel-28 cells. The experiment in a line: Vacuolization, bright field microscopy. Conditions: SK-Mel-28, 5µM or 10µM, 18h. Type of data set: cell-based, human. Here is the method: as §1
(§3) Cells were plated on glass slides and were treated with compound at the indicated concentrations for 18h before imaging. Digital images were taken using a Veleta camera (Olympus Soft Imaging Solutions).

For data set [4], the system named is Panc-1 cells. Nature of the data set: Vacuolization, bright field microscopy. In kind it is cell-based, human. The following applies: Panc-1, 5µM or 10µM, 18h.
Description: The following well-characterized human pancreatic ductal adenocarcinoma cell lines (ATCC) were used: HPAF II, BxPC-3, MIA-PaCa2 and Panc-1. These cell lines were generated from patient-derived tumors and are widely used model system to study pancreatic cancer (HPAF II: Kim YW, et al. Pancreas 4: 353-362, 1989; BxPC-3: Tan MH, et al. Cancer Invest. 4: 15-23, 1986; MIA-PaCa2: Yunis AA, et al. Int. J. Cancer 19: 128-135, 1977; Pacn-1: Lieber M, et al. Int. J. Cancer 15: 741-747, 1975).
as §3

In the next data set the test system is KPC cells. The experiment in a line: Vacuolization, bright field microscopy. In kind it is cell-based, mouse. Conditions: 5µM (3.3 µM elsewhere in the source) or 10µM, 18h. Here is the method:
as §3

The test system of data set [5] is Panc-1 cells. The experiment in a line: Long term toxicity (viability assay up to 25 days). In kind it is cell-based, human. The protocol:
as §2
(§4) SK-Mel-28 and Panc-1 cells were plated on 96 well plates. Three hours post-seeding, cells were treated with 10 µM, 1 µM, 0.1 µM and 0.01 µM of S2 or vehicle (DMSO). Viability assay was conducted after 24 h, 72 h, 5 days, 10 days, 15 days, 20 days and 25 days, as described above. Media was changed every two days. […] Cell viability at each concentration was quantified relative to DMSO control at any time point (each time point had its own control), and was presented as fraction of control. Each treatment and the adequate control and was performed in 3, 4 and 6 repeats. Error bars indicate standard error (SE).
as §4, with “Vacquionol-1 SR (S2)” for “S2”

Data set [6] has as its system SK-Mel-28 cells. Nature of the data set: Long term toxicity (viability assay up to 25 days). Type of data set: cell-based, human. Here is the method:
as §2, §4
as §4, with “Vacquionol-1 SR (S2)” for “S2”

For orientation: Tmax means the time from dosing to the highest level. The Cmax is the maximum level reached in the sampled fluid or tissue. Broadly, the IC50 is the concentration at which inhibition is half-maximal. `O[C@@H](c1cc(-c2ccc(Cl)cc2)nc2ccccc12)[C@H]1CCCCN1` [S2, (S)-(2-(4-chlorophenyl)quinolin-4-yl)((R)-piperidin-2-yl)methanol]: the “Brain AUC last” value in data set [1] (brain, i.v., 2 mg/kg) stood at 9050 ng·h/mL; in data set [1] (brain, p.o., 20 mg/kg) it was 157000 ng·h/mL. In addition, the “Brain Cmax” value is 777 ng/mL in data set [1] (brain, i.v., 2 mg/kg) and 1490 ng/mL in data set [1] (brain, p.o., 20 mg/kg). For the same compound, the “Brain tlast” value in data set [1] (brain, i.v., 2 mg/kg) came out at 72 h; in data set [1] (brain, p.o., 20 mg/kg), 144 h. Besides, the Kp in data set [1] (po, 20 mg/kg, read-out: exposure ratio AUC(brain/plasma)) turned out to be 0.9; in data set [1] (po, 20 mg/kg, read-out: exposure ratio Cmax(brain/plasma)) it was 0.7. The Tmax in data set [1] (iv, brain, i.v., 2 mg/kg, read-out: Brain tmax) amounted to 1 h; in data set [1] (iv, plasma, i.v., 2 mg/kg, read-out: Plasma tmax) it was 0.5 h; in data set [1] (po, brain, p.o., 20 mg/kg, read-out: Brain tmax) it was 6 h; in data set [1] (po, plasma, p.o., 20 mg/kg, read-out: Plasma tmax) it was 8 h. Besides, the Cmax was found to be 455 ng/mL in data set [1] (iv, plasma, 2 mg/kg) and 2050 ng/mL in data set [1] (po, plasma, 20 mg/kg). Further, the “Plasma AUC last” value in data set [1] (plasma, i.v., 2 mg/kg) was 14100 ng·h/mL; in data set [1] (plasma, p.o., 20 mg/kg) it was 183000 ng·h/mL. Besides, the “Plasma tlast” value in data set [1] (plasma, i.v., 2 mg/kg) is 72 h; in data set [1] (plasma, p.o., 20 mg/kg), 144 h. For the same compound, the “in vitro cytotoxicity, comparison of isolated isomers” value in data set [2] was “S1 and S2 exhibit greater in vitro oncolytic potency than the corresponding S3 and S4 isomers; also recorded: S1 and S2 exhibit higher cytotoxicity on cancer cells than S3 and S4”. In addition, the half-maximal inhibitory concentration (IC50) is 3600 nM with SK-Mel-28 (SK-MEL-28, 24 h); 2400 nM in the data set with SK-Mel-28 (SK-MEL-28, 48 h); 2100 nM in the data set with SK-Mel-28 (SK-MEL-28, 72 h). The vacuole formation entry is given as “stimulate vacuole formation” in the data set with SK-Mel-28 cells [3]; “stimulates vacuole formation” in the data set with SK-Mel-28 cells [3] (listed as Vacquinol-1 SR (S2)); “stimulate vacuole formation” in the data set on Panc-1 cells [4]; “stimulates vacuole formation” in the data set with Panc-1 cells [4] (listed as Vacquinol-1 SR (S2)); “stimulate vacuole formation” in the data set with KPC cells; “stimulates vacuole formation” in the data set with KPC cells (listed as Vacquinol-1 SR (S2)). Besides, the long term toxicity result in the data set on Panc-1 cells [5] (Panc-1, 10, 1, 0.1, 0.01 µM, up to 25 days) is “dose-dependent cytotoxic effect”; in the data set on SK-Mel-28 cells [6] (SK-Mel-28, 10, 1, 0.1, 0.01 µM, up to 25 days) it was “dose-dependent cytotoxic effect”. In addition, the “long term toxicity, lower concentrations” value with Panc-1 cells [5] (Panc-1, long term exposure, 1µM) is reported as “complete death”; with SK-Mel-28 cells [6] (SK-Mel-28, long term exposure of lower concentrations), “complete death of the cells”.
For the compound `O[C@@H](c1cc(-c2ccc(Cl)cc2)nc2ccccc12)[C@@H]1CCCCN1` [S4, (S)-(2-(4-chlorophenyl)quinolin-4-yl)((S)-piperidin-2-yl)methanol], in data set [2], the “in vitro cytotoxicity, comparison of isolated isomers” value was “S1 and S2 exhibit greater in vitro oncolytic potency than the corresponding S3 and S4 isomers; also recorded: S1 and S2 exhibit higher cytotoxicity on cancer cells than S3 and S4”.
The same measure, in the same setting: as for `O[C@H](c1cc(-c2ccc(Cl)cc2)nc2ccccc12)[C@H]1CCCCN1` [S3, (R)-(2-(4-chlorophenyl)quinolin-4-yl)((R)-piperidin-2-yl)methanol], the entry is “S1 and S2 exhibit greater in vitro oncolytic potency than the corresponding S3 and S4 isomers; also recorded: S1 and S2 exhibit higher cytotoxicity on cancer cells than S3 and S4”.
